# Assay results from patent US8779158B2, “Trisubstituted pyrazoles as acetylcholine receptor modulators” (Janssen Pharmaceutica NV, priority 2008, dated 2014).
# Key:
# hα7-wt nAChR = biological target: T1, hα7-wt nAChR (Homo sapiens, UniProt P36544); experiment: Ca2+ flux imaging (FDSS) (Protocol B), potentiation of the choline response; format: cell-based; details: Ca2+ assay as described in D.1; "<5" = activity did not reach a top plateau at maximal concentration
# T1 construct: expressed in transfected cells
# T1 sequence (P36544 23-502): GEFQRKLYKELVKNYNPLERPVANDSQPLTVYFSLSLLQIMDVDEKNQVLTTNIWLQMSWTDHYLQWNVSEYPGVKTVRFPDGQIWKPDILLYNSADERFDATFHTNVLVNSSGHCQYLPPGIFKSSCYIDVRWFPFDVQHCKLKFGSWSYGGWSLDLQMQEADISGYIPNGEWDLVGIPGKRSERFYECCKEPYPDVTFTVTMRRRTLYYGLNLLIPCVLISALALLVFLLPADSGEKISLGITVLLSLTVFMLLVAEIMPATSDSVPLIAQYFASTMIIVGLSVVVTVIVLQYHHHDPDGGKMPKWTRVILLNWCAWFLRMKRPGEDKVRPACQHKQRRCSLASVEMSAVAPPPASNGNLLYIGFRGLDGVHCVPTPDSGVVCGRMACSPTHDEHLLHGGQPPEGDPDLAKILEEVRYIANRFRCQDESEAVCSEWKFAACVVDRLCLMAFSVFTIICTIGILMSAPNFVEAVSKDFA
# Summary of the method: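 Cells expressing hα7-wt nAChR, loaded with fluo-4AM (2 μM final) in HBSS with 10 mM HEPES, 5 mM CaCl2, 0.1% BSA and probenecid; compound (0.01–30 μM) added up to 10 min before 100 μM choline. Peak fluorescence potentiation relative to choline alone (100%); EC50 from sigmoidal curve.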
# [1] = biological target: T2, hα7-wt nAChR-expressing GH4C1 cells (Homo sapiens, UniProt P36544); experiment: Patch-clamp current recording (whole-cell voltage clamp), potentiation of the choline current and PAM type; format: cell-based; parameters: key: Type 0 compounds minimally enhance the effect size of the current elicited by 1 mM choline.; Type 1 compounds enhance the effect size of the current elicited by 1 mM choline but minimally alter the kinetics of the receptor.; Type 2 compounds enhance the effect size of the current elicited by 1 mM choline while reducing the rate and/or the extent of desensitization.; Type 3 compounds enhance the effect size of the current elicited by 1 mM choline. When tested at higher concentrations up to 10 μM they completely inhibit desensitization, in particular a 1 mM choline application of 250 milliseconds.; Type 4 compounds allow for an initial desensitization of the receptor followed by a re-opening of the receptor during agonist application; details: 1 mM choline
# T2 construct: expressed in transfected cells
# T2 sequence (P36544 23-502): as above
# Summary of the method: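 Whole-cell voltage clamp at −70 mV of GH4C1 cells stably expressing human wild-type α7, with compound co-applied with 1 mM choline via rapid (<100 ms) application; external solution pH 7.3 with 1 mM Ca, CsCl-based internal. Peak-current potentiation relative to choline alone (=100%); compounds reaching ≥200% assigned PAM type 0-4 from desensitization kinetics.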
SMILES,EC50 (hα7-wt nAChR) [nM],melting point [°C],PAM type [1]
CNC(=O)Cn1nc(Nc2ccc3c(c2)OC(F)(F)O3)cc1-c1ccc2c(c1)OCCO2 [compound 97],1120,171.5 to 171.8,–
CNC(=O)Cn1nc(Nc2cccc(F)c2)cc1-c1ccc2c(c1)OCCO2 [compound 72],646,189.5 to 194,2
CCNC(=O)Cn1nc(Nc2cccc(Cl)c2)cc1-c1ccnc(C)c1 [compound 111],1700,–,2
CNC(=O)Cn1nc(Nc2ccc3c(c2)OC(F)(F)O3)cc1-c1ccnc(COC)c1 [compound 112],1510,–,4
CCNC(=O)Cn1nc(Nc2ccc(F)c(C(F)(F)F)c2)cc1-c1ccc(C)nc1 [compound 27],1150,–,2

# These reach a lower EC50 (hα7-wt nAChR). Values come first.
EC50 (hα7-wt nAChR) [nM],melting point [°C],SMILES,PAM type [1]
437,169.9 to 177.3,CNC(=O)Cn1nc(Nc2ccc(F)cc2)cc1-c1ccc2c(c1)OCCO2 [compound 73],3
195,189.5 to 194.5,"CNC(=O)Cn1nc(Nc2ccc(F)c(F)c2)cc1-c1ccc2c(c1)OCCO2 [compound 7, 3-[(3,4-difluorophenyl)amino]-5-(2,3-dihydro-1,4-benzodioxin-6-yl)-N-methyl-1H-pyrazole-1-acetamide]",2
117,141.6 to 143.2,CN(C)C(=O)CCn1nc(Nc2ccc(F)cc2)cc1-c1ccc2c(c1)OCCO2 [compound 83],–
